Results as given in patent US20210095293A1, “METHODS OF TREATING CANCERS WITH GPR132 INHIBITORS” (The Board of Regents of the University of Texas System, priority 2016, published 2021).

Columns and labels:
[1] = tested on: breast cancer cells (4T1.2, EO771); assay: Boyden chamber assay, cancer cell migration; assay type: cell-based, mouse
Experimental: FIGS. 11A-11C. Lactate-activated macrophage promotes cancer cell adhesion, migration and invasion via Gpr132. (FIG. 11A) Adherence assays. 4T1.2 cells were suspended in fibronectin ([…]) pre-coated plates with CM from spleen-derived macrophages (mf) that were treated with 4T1.2 CM or lactate (5 mM) with or without Gpr132 antibody (6 mg/ml) or normal IgG (6 mg/ml) for 10 min. The adhered cells were stained with crystal violet, dissolved in 1% Triton X-100 and measured by OD590. (FIGS. 11B-11C) Boyden chamber assay of cancer cell migration and invasion. 4T1.2 cells (B) or EO771 cells (FIG. 11C) were plated on the upper chamber inserts, with untreated (Control), 4T1.2 CM-activated or lactate-activated spleen-derived WT or Gpr132-KO macrophages plated in the lower chambers. For invasion assay, the inserts were pre-coated with 60 μl matrigel. After migration for 6 hrs (FIG. 11B) or invasion for 24 hrs (FIG. 11C), the migrated or invaded cells were stained with crystal violet and counted as cells per field of view under microscope (n=3-4); For (FIG. 11C), the first bar of each data set of the bar graphs represents the control mf, and the second bar represents Gpr132KO; *p<0.05; **p<0.01; ***p<0.005; ****p<0.001. Scale bar, 500 μm.
FIGS. 23A-23B. Cancer cell-derived lactate activates macrophages to promote cancer cell migration and invasion via Gpr132. (FIGS. 23A-23B) Boyden chamber assay. EO771 or 4T1.2 cells were cultured in the presence or absence of oxamic acid (90 mM) for 3 days. CM was harvested after the cells were cultured for another 24 hrs without oxamic acid. As a rescue, CM of oxamic acid-treated EO771 or 4T1.2 cells was supplemented with exogenous lactate. […] After migration for 6 hrs (FIG. 23A) or invasion for 24 hrs (FIG. 23B), the migrated or invaded cells were stained with crystal violet and counted as cells per field of view under microscope (n=3-4); for (FIG. 23A), the bars in each data set of the bar graph represent, from left to right, control, EO771, Oxamic acid, and Oxamic acid+Lactate; for (FIG. 23B), the bars in each data set of the bar graph represent, from left to right, control, 4T1.2CM, Oxamic acid, and Oxamic acid+Lactate; *p<0.05; ****p<0.001. […]
Migration or invasion of breast cancer cells was examined using 24-well Boyden chambers (Corning, Corning, N.Y.) with transwell inserts of […] pore size, coated without (for migration) or with matrigel (for invasion) as previously reported. […] The migrated or invaded cells were fixed with methanol and stained with crystal violet (0.05%, sigma), and then counted as cells per field of view under microscope or measured as OD570 after crystal violet was dissolved.

[2] = tested on: bone marrow derived macrophages (BMDMs); assay: macrophage M2-like morphology (elongation); assay type: cell-based, mouse; settings: WT BMDMs, exogenous lactate added
Description: FIGS. 9A-9D. Tumor-derived factors activate M2-like macrophages via Gpr132. (FIG. 9A) The pH values of conditioned media (CM) from cancer cells or macrophages (n=5-8); *p<0.05, ****p<0.001 compared with RAW 264.7 macrophage CM. (FIG. 9B) Western blot for CD206 and Gpr132 in RAW 264.7 macrophages after treatment with indicated cancer cell CM for 24 hrs. Actin was used as a loading control. The CD206/actin or Gpr132/actin ratio was quantified and shown as fold changes compared to control (n=3); *p<0.05, ***p<0.005 compared with control. (FIG. 9C) Flow cytometry analysis of Gpr132 and CD206 in BMDMs with or without EO771 CM treatment. The experiments were repeated twice and the representative results are shown. (FIG. 9D) Immunofluorescence staining for CD11b in WT and Gpr132-KO BMDMs after differentiation in the absence or presence of 30% EO771 CM or 4T1.2 CM for 7 days. Elongated macrophage morphology indicates a M2-like phenotype. Nuclei were stained with DAPI. Scale bar, 25 μm. WT, wild-type; Gpr132-KO, Gpr132 knockout.
FIGS. 10A-10F. […] LC-MS was used to quantify lactate in the eluent of Gpr132 co-IP. (Left) Representative LC-MS chromatograms; (Right) Quantification of relative lactate binding (n=3). ****p<0.001 compared with WT. […] CD206/actin ratio was quantified and shown as fold changes compared to control (n=3-4); *p<0.05 compared with WT control. […]

SMILES: CC(O)C(=O)O (stereo not shown) [lactate]
- number of migrated cancer cells with activated WT macrophages ([1]; 4T1.2 cells, 6 hrs, vs untreated WT macrophages): significantly enhanced
- effects on cancer cell migration with Gpr132-KO macrophages ([1]; Gpr132 deletion in macrophages): attenuated
- rescue of migration by addition to oxamic acid-pretreated cancer cell CM ([1]; exogenous lactate, WT macrophages): restored
- rescue of M2-like morphology by addition to CM of oxamic acid-treated cells [2]: restored
